Measured values from BindingDB's records for doi:10.1073/pnas.88.17.7491 (Duke University, 1991).

Target: D(1A) dopamine receptor (Homo sapiens, UniProt P21728)
Sequence (P21728 whole entry): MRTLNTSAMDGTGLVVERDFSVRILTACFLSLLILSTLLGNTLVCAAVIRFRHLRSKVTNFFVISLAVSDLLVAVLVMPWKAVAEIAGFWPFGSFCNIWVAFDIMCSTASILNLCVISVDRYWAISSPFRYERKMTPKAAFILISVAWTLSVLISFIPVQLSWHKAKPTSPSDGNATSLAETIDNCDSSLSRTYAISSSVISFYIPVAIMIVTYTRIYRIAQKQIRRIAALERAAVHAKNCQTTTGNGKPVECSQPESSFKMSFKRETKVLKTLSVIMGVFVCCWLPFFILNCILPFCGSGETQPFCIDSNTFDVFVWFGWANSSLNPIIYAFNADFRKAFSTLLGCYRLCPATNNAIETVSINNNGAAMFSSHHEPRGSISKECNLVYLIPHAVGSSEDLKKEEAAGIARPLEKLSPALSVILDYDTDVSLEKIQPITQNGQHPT

Row | Ki | Compound
1 | 0.65 nM | OCCC1CCN(CCC=C2c3ccc(F)cc3Sc3ccc(C(F)(F)F)cc32)CC1 [CAS_60197-32-2]
2 | 75 nM | CN1CCN(C2=Nc3cc(F)ccc3Cc3ccccc32)CC1

Row | Compound | Ki
3 | O=C(O)c1ccccc1C(=O)Nc1cccc2ccccc12 [NPA,(+)] | 1540 nM
